The NIST ThermoML archive (doi:10.1016/j.jct.2015.09.004)
Numbers after ± are expanded uncertainties.

Tests used:
[1] = for vapor or sublimation pressure: Closed cell (Static) method; for Normal melting temperature: DTA
[2] = Molar enthalpy of transition or fusion; conditions: Crystal; DSC

CC(=O)c1ccc(F)cc1 [1-(4-fluorophenyl)ethanone]
[1]
Conditions | vapor or sublimation pressure [kPa]
255.13 K, Metastable liquid | 0.00086 ± 0.0001
256.87 K, Metastable liquid | 0.00104 ± 0.0001
258.79 K, Metastable liquid | 0.00128 ± 0.0001
260.76 K, Metastable liquid | 0.00157 ± 0.00011
262.72 K, Metastable liquid | 0.00193 ± 0.00012
264.7 K, Metastable liquid | 0.00233 ± 0.00013
266.63 K, Metastable liquid | 0.00285 ± 0.00014
268.62 K, Metastable liquid | 0.00348 ± 0.00017
270.62 K, Liquid | 0.00417 ± 0.00019
272.54 K, Liquid | 0.00501 ± 0.00022
274.51 K, Liquid | 0.00603 ± 0.00025
276.49 K, Liquid | 0.00725 ± 0.0003
278.49 K, Liquid | 0.00865 ± 0.00035
280.5 K, Liquid | 0.01035 ± 0.00042
282.42 K, Liquid | 0.01227 ± 0.00049
284.44 K, Liquid | 0.01455 ± 0.00054
286.42 K, Liquid | 0.01723 ± 0.00058
288.39 K, Liquid | 0.02022 ± 0.00062
290.38 K, Liquid | 0.02379 ± 0.00068
292.34 K, Liquid | 0.02795 ± 0.00074
294.31 K, Liquid | 0.03279 ± 0.00082
296.34 K, Liquid | 0.03807 ± 0.0009
298.27 K, Liquid | 0.04465 ± 0.001
300.3 K, Liquid | 0.05171 ± 0.0011
302.24 K, Liquid | 0.06005 ± 0.0012
304.2 K, Liquid | 0.06895 ± 0.0014
306.15 K, Liquid | 0.07985 ± 0.0015
308.16 K, Liquid | 0.09146 ± 0.0017
310.15 K, Liquid | 0.1056 ± 0.0019

Conditions | Normal melting temperature [°C]
[1], Crystal | -4 ± 0.4

Conditions | Molar enthalpy of transition or fusion [kcal/mol]
[2] | 3.39 ± 0.0956

CC(=O)c1ccc(Br)cc1 [4'-bromoacetophenone]
[1]
Conditions | vapor or sublimation pressure [kPa]
295.3 K, Crystal | 0.00115 ± 0.00011
297.26 K, Crystal | 0.00142 ± 0.00012
299.2 K, Crystal | 0.00175 ± 0.00012
301.22 K, Crystal | 0.00219 ± 0.00013
303.17 K, Crystal | 0.00269 ± 0.00015
305.12 K, Crystal | 0.00341 ± 0.00017
305.14 K, Metastable liquid | 0.00501 ± 0.00022
307.11 K, Crystal | 0.00418 ± 0.0002
307.13 K, Metastable liquid | 0.00591 ± 0.00025
309.13 K, Crystal | 0.00512 ± 0.00023
309.14 K, Metastable liquid | 0.00699 ± 0.00029
311.05 K, Crystal | 0.00632 ± 0.00027
311.08 K, Metastable liquid | 0.0082 ± 0.00034
312.97 K, Metastable liquid | 0.00953 ± 0.00039
313.08 K, Crystal | 0.00777 ± 0.00032
315.05 K, Crystal | 0.00949 ± 0.00039
315.06 K, Metastable liquid | 0.01125 ± 0.00045
317.04 K, Crystal | 0.01155 ± 0.00046
317.08 K, Metastable liquid | 0.01318 ± 0.00052
319.04 K, Crystal | 0.0141 ± 0.00053
319.06 K, Metastable liquid | 0.01542 ± 0.00055
321.03 K, Metastable liquid | 0.01778 ± 0.00059
322.97 K, Metastable liquid | 0.02065 ± 0.00063
324.98 K, Metastable liquid | 0.02389 ± 0.00068
327.07 K, Liquid | 0.02782 ± 0.00074
328.92 K, Liquid | 0.03179 ± 0.0008
331.01 K, Liquid | 0.03679 ± 0.00088
333 K, Liquid | 0.04238 ± 0.00097
334.94 K, Liquid | 0.04849 ± 0.0011
336.95 K, Liquid | 0.05561 ± 0.0012
338.92 K, Liquid | 0.06344 ± 0.0013
340.91 K, Liquid | 0.07228 ± 0.0014
342.92 K, Liquid | 0.08249 ± 0.0016
344.85 K, Liquid | 0.09385 ± 0.0018
346.83 K, Liquid | 0.1056 ± 0.0019
348.79 K, Liquid | 0.1197 ± 0.0022
350.66 K, Liquid | 0.1346 ± 0.0021
352.73 K, Liquid | 0.1529 ± 0.0022
354.58 K, Liquid | 0.1698 ± 0.0023
356.66 K, Liquid | 0.1927 ± 0.0025
358.51 K, Liquid | 0.2158 ± 0.0027
360.62 K, Liquid | 0.2427 ± 0.0029
362.46 K, Liquid | 0.27 ± 0.0032
364.54 K, Liquid | 0.3031 ± 0.0034
366.57 K, Liquid | 0.3388 ± 0.0037
368.54 K, Liquid | 0.3774 ± 0.0041
370.53 K, Liquid | 0.4201 ± 0.0044
372.5 K, Liquid | 0.4659 ± 0.0048
374.46 K, Liquid | 0.5142 ± 0.0053
376.43 K, Liquid | 0.5712 ± 0.0058
378.39 K, Liquid | 0.6312 ± 0.0063

Conditions | Normal melting temperature [°C]
[1], Crystal | 51.1 ± 0.4

Conditions | Molar enthalpy of transition or fusion [kcal/mol]
[2] | 4.57 ± 0.12

CC(=O)c1ccc(I)cc1 [para-iodoacetophenone]
[1]
Conditions | vapor or sublimation pressure [kPa]
313.07 K, Crystal | 0.00086 ± 0.00011
315.1 K, Crystal | 0.00108 ± 0.00012
317.07 K, Crystal | 0.00134 ± 0.00012
319.04 K, Crystal | 0.00166 ± 0.00013
321.02 K, Crystal | 0.00205 ± 0.00014
323.02 K, Crystal | 0.00253 ± 0.00015
325.06 K, Crystal | 0.00313 ± 0.00017
326.98 K, Crystal | 0.00382 ± 0.00019
329.06 K, Crystal | 0.00477 ± 0.00022
330.99 K, Crystal | 0.00578 ± 0.00025
333.01 K, Crystal | 0.0071 ± 0.0003
334.95 K, Crystal | 0.00856 ± 0.00035
336.96 K, Crystal | 0.01043 ± 0.00042
338.87 K, Crystal | 0.01256 ± 0.0005
340.91 K, Crystal | 0.01528 ± 0.00055
342.83 K, Crystal | 0.01834 ± 0.0006
344.76 K, Crystal | 0.02192 ± 0.00065
346.73 K, Crystal | 0.02634 ± 0.00072
348.73 K, Crystal | 0.03176 ± 0.0008
348.73 K, Metastable liquid | 0.03831 ± 0.0009
350.7 K, Metastable liquid | 0.04337 ± 0.00098
350.71 K, Crystal | 0.03795 ± 0.0009
352.69 K, Metastable liquid | 0.04939 ± 0.0011
352.75 K, Crystal | 0.04537 ± 0.001
354.68 K, Metastable liquid | 0.05596 ± 0.0012
356.62 K, Metastable liquid | 0.06332 ± 0.0013
358.92 K, Liquid | 0.07293 ± 0.0014
360.65 K, Liquid | 0.08166 ± 0.0016
362.51 K, Liquid | 0.09128 ± 0.0017
364.59 K, Liquid | 0.1048 ± 0.0019
366.58 K, Liquid | 0.1171 ± 0.0021
368.51 K, Liquid | 0.131 ± 0.002
370.52 K, Liquid | 0.1458 ± 0.0021
372.41 K, Liquid | 0.1634 ± 0.0023
374.48 K, Liquid | 0.1829 ± 0.0024
376.36 K, Liquid | 0.2045 ± 0.0026
378.41 K, Liquid | 0.2281 ± 0.0028
380.39 K, Liquid | 0.2553 ± 0.003
382.37 K, Liquid | 0.2831 ± 0.0033
384.3 K, Liquid | 0.3146 ± 0.0035
386.31 K, Liquid | 0.3478 ± 0.0038
388.27 K, Liquid | 0.3882 ± 0.0042
389.83 K, Liquid | 0.42 ± 0.0044
392.22 K, Liquid | 0.4723 ± 0.0049
394.17 K, Liquid | 0.5188 ± 0.0053
396.15 K, Liquid | 0.5726 ± 0.0058
398.12 K, Liquid | 0.6279 ± 0.0062
399.98 K, Liquid | 0.6883 ± 0.0068
402.04 K, Liquid | 0.7599 ± 0.0074

Conditions | Normal melting temperature [°C]
[1], Crystal | 84.5 ± 0.4

Conditions | Molar enthalpy of transition or fusion [kcal/mol]
[2] | 5.62 ± 0.12

CC(=O)c1ccc(Cl)cc1 [4'-chloroacetophenone]
[1]
Conditions | vapor or sublimation pressure [kPa]
271.56 K, Metastable liquid | 0.00065 ± 0.0001
273.59 K, Metastable liquid | 0.00081 ± 0.0001
275.52 K, Metastable liquid | 0.00098 ± 0.0001
277.47 K, Metastable liquid | 0.00118 ± 0.00011
279.48 K, Metastable liquid | 0.00144 ± 0.00011
281.51 K, Metastable liquid | 0.00176 ± 0.00012
283.42 K, Metastable liquid | 0.0021 ± 0.00013
285.45 K, Metastable liquid | 0.00256 ± 0.00014
287.39 K, Metastable liquid | 0.00305 ± 0.00016
289.34 K, Metastable liquid | 0.00364 ± 0.00017
291.32 K, Liquid | 0.00437 ± 0.0002
293.32 K, Liquid | 0.00519 ± 0.00023
295.29 K, Liquid | 0.00616 ± 0.00026
297.26 K, Liquid | 0.00729 ± 0.0003
299.24 K, Liquid | 0.00863 ± 0.00035
301.19 K, Liquid | 0.01012 ± 0.00041
303.21 K, Liquid | 0.01198 ± 0.00048
305.16 K, Liquid | 0.01396 ± 0.00053
307.18 K, Liquid | 0.01629 ± 0.00056
309.12 K, Liquid | 0.01902 ± 0.00061
311.1 K, Liquid | 0.02236 ± 0.00066
313.1 K, Liquid | 0.02596 ± 0.00071
315.07 K, Liquid | 0.03015 ± 0.00078
317.04 K, Liquid | 0.03486 ± 0.00085
319.07 K, Liquid | 0.04049 ± 0.00094
321 K, Liquid | 0.04613 ± 0.001
323.09 K, Liquid | 0.05334 ± 0.0011
325.1 K, Liquid | 0.0612 ± 0.0013
327.08 K, Liquid | 0.06999 ± 0.0014
329.05 K, Liquid | 0.07991 ± 0.0015
331.04 K, Liquid | 0.09133 ± 0.0017
333 K, Liquid | 0.1037 ± 0.0019
334.98 K, Liquid | 0.1174 ± 0.0021

Conditions | Normal melting temperature [°C]
[1], Crystal | 17.2 ± 0.4

Conditions | Molar enthalpy of transition or fusion [kcal/mol]
[2] | 3.66 ± 0.0956
